# Measurements published in patent publication US9359297B2, “Spirolactam derivatives and uses of same” (H. Lundbeck A/S, priority 2009, dated 2016).
# Target: T1, human metabotropic glutamate receptor 5 (hmGluR5) (Homo sapiens, UniProt P41594)
# T1 construct: expressed in transfected cells
# Assay: Calcium mobilization (FLIPR) assay for negative allosteric modulation, EC80 glutamate, hmGluR5 in HEK 293
# Type: cell-based
# Conditions: HEK293; hmGluR5, inhibition of EC80 glutamate response; read-out: FLIPR maximum inhibition
# Procedure, shortened: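 Stably transfected HEK 293 cells, Fluo-4-loaded, stimulated with EC80 glutamate plus test compound in HBSS/20 mM HEPES pH 7.4 with probenecid; FLIPR fluorescence read over 3 min at room temperature. Basal-subtracted maximum fluorescence change fitted by Hill equation; negative modulation seen as concentration-dependent inhibition of the EC80 response.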
# T1 sequence (P41594 21-1212): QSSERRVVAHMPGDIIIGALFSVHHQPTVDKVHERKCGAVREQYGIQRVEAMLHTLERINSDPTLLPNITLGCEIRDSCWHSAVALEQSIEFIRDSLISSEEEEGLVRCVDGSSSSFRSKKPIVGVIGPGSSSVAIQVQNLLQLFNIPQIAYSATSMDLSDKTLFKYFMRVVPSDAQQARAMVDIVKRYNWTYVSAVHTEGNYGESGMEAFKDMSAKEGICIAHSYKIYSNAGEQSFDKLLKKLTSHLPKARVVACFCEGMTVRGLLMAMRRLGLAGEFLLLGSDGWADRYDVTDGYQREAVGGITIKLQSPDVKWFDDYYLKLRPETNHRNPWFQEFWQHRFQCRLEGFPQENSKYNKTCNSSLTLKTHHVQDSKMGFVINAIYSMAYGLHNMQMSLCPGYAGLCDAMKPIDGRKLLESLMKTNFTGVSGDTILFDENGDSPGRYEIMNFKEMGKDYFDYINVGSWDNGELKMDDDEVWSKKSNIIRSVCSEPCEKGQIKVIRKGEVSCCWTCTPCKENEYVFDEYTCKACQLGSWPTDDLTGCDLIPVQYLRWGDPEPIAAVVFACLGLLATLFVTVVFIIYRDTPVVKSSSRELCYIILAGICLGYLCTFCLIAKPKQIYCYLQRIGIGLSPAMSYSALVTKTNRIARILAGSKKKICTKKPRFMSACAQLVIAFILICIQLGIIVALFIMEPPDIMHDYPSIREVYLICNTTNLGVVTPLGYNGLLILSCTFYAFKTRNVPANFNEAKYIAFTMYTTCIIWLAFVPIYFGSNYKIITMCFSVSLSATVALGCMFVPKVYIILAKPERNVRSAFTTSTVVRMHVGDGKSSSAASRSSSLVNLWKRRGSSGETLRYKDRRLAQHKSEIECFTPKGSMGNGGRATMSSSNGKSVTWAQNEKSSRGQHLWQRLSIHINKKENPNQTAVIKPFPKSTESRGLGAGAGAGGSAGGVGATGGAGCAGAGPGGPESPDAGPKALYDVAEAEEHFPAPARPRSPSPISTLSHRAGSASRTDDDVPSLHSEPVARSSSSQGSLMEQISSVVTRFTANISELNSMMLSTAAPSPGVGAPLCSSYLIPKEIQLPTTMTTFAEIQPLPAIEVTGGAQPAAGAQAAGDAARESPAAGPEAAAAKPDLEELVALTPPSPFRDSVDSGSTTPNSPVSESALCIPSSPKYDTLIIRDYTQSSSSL
row,Emax,SMILES
1,47 to 93%,"Cc1nccc(N2CC[C@@]3(C[C@@H](NC(=O)c4cccc(F)c4)CC(F)(F)C3)C2=O)n1 (single isomer, unassigned) [Example 120]"
2,47 to 93%,"Cc1nccc(N2CC[C@]3(C[C@H](NC(=O)c4cccc(F)c4)CC(F)(F)C3)C2=O)n1 (single isomer, unassigned) [Example 121]"
3,73 to 95%,"Cc1cccc(C(=O)N[C@@H]2CCC[C@@]3(CCN(c4ccc(F)cc4)C3=O)C2)n1 [Example 80, 6-Methyl-pyridine-2-carboxylic acid [(5R,7R)-2-(4-fluoro-phenyl)-1-oxo-2-aza-spiro[4.5]dec-7-yl]-amide]"
4,73 to 95%,"Cc1cc(C(=O)N[C@@H]2CCC[C@@]3(CCN(c4cccc(F)c4)C3=O)C2)ccn1 [Example 95, N-[(5R,7R)-2-(3-Fluoro-phenyl)-1-oxo-2-aza-spiro[4.5]dec-7-yl]-2-methyl-isonicotinamide]"
5,47 to 93%,"CN(C)c1cccc(N2CC[C@]3(CCC[C@H](NC(=O)c4cccc(F)c4)C3)C2=O)c1 [Example 132, Cis-N-[(5S,7S)-2-(3-Dimethylamino-phenyl)-1-oxo-2-aza-spiro[4.5]dec-7-yl]-3-fluoro-benzamide]"
6,47 to 93%,"Cc1nccc(N2CC[C@@]3(CCC[C@@H](NC(=O)c4cccc(Cl)c4)C3)C2=O)n1 [Example 148, 3-Chloro-N-[(5R,7R)-2-(2-methyl-pyrimidin-4-yl)-1-oxo-2-aza-spiro[4.5]dec-7-yl]-benzamide]"
7,47 to 93%,"Cc1cccc(C(=O)N[C@@H]2CCC[C@@]3(CCN(c4ccnc(C)n4)C3=O)C2)c1 [Example 152, 3-Methyl-N-[(5R,7R)-2-(2-methyl-pyrimidin-4-yl)-1-oxo-2-aza-spiro[4.5]dec-7-yl]-benzamide]"
8,47 to 93%,"Cc1cccc(C(=O)N[C@@H]2CCC[C@@]3(CCN(c4ccnc(C(F)(F)F)n4)C3=O)C2)n1 [Example 156, 6-Methyl-pyridine-2-carboxylic acid[(5R,7R)-1-oxo-2-(2-trifluoromethyl-pyrimidin-4-yl)-2-aza-spiro[4.5]dec-7-yl]-amide]"
9,47 to 93%,"Cn1ccc(N2CCC3(CCCC(NC(=O)c4cccc(F)c4)C3)C2=O)n1 (centres unmarked) [Example 158, 3-Fluoro-N-[2-(1-methyl-1H-pyrazol-3-yl)-1-oxo-2-aza-spiro[4.5]dec-7-yl]-benzamide]"
10,47 to 93%,"Cc1nc(C(=O)N[C@@H]2CCC[C@@]3(CCN(c4cc(F)cc(F)c4)C3=O)C2)cc(=O)[nH]1 [Example 159, 2-Methyl-6-oxo-1,6-dihydro-pyrimidine-4-carboxylic acid [(5R,7R)-2-(3,5-difluoro-phenyl)-1-oxo-2-aza-spiro[4.5]dec-7-yl]amide]"
11,47 to 93%,"CC1(F)CC(NC(=O)c2ccccn2)CC2(CCN(c3cccc(F)c3)C2=O)C1 (centres unmarked) [Example 160, Pyridine-2-carboxylic acid [9-fluoro-2-(3-fluoro-phenyl)-9-methyl-1-oxo-2-aza-spiro[4.5]dec-7-yl]-amide]"

# Further lines, the compound ahead of its results:
row,SMILES,Emax
1,"Cc1nccc(C(=O)N[C@@H]2C[C@](C)(O)C[C@@]3(CCN(c4cc(F)cc(F)c4)C3=O)C2)n1 (single isomer, unassigned) [Example 119, cis-2-Methyl-pyrimidine-4-carboxylic acid [2-(3,5-difluoro-phenyl)-9-hydroxy-9-methyl-1-oxo-2-aza-spiro[4.5]dec-7-yl]-amide]",47 to 93%
2,"Cc1cccc(C(=O)N[C@H]2CC(F)(F)C[C@]3(CCN(c4ccc(F)cn4)C3=O)C2)n1 (single isomer, unassigned) [Example 127]",47 to 93%
3,"Cc1cccc(C(=O)N[C@@H]2CCC[C@@]3(CCN(c4ccc(F)cn4)C3=O)C2)n1 [Example 73, 6-Methyl-pyridine-2-carboxylic acid [(5R,7R)-2-(5-fluoro-pyridin-2-yl)-1-oxo-2-aza-spiro[4.5]dec-7-yl]-amide]",73 to 95%
4,"CN1CCC(N2CCC3(CCCC(NC(=O)c4cccc(F)c4)C3)C2=O)CC1 (centres unmarked) [Example 157, 3-Fluoro-N-[2-(1-methyl-piperidin-4-yl)-1-oxo-2-aza-spiro[4.5]dec-7-yl]-benzamide]",47 to 93%

# Target: T2, rat metabotropic glutamate receptor 5 (rmGluR5) (Rattus norvegicus, UniProt P31424)
# T2 construct: expressed in transfected cells
# Assay: Calcium mobilization (FLIPR) assay for negative allosteric modulation, EC80 glutamate, rmGluR5 in HEK 293
# Type: cell-based
# Conditions: HEK293; rmGluR5, inhibition of EC80 glutamate response; read-out: FLIPR maximum inhibition
# Experimental: The cDNA for rat metabotropic glutamate receptor 5 (rmGluR5) and the cDNA for human metabotropic glutamate receptor 5 (hmGluR5) were generous gifts from S. Nakanishi (Kyoto University, Kyoto, Japan). The rmGluR5 or hmGluR5 was stably expressed in a HEK 293 cell line and grown in Dulbecco's Modified Eagle Medium (DMEM) (Invitrogen, Carlsbad, Calif.) with supplements (10% bovine calf serum, 4 mM glutamine, 100 units/mL penicillin, 100 μg/mL streptomycin and 0.75 mM G1418) at 37° C., 5% CO2. Twenty-four hours prior to assay, cells were seeded into 384-well black wall microtiter plates coated with poly-D-lysine. Just prior to assay, media was aspirated and cells dye-loaded (25 μL/well) with 3 μM Fluo-4/0.01% pluronic acid in assay buffer (Hank's Balanced Saline Solution (HBSS)): 150 mM NaCl, 5 mM KCl, 1 mM CaCl2, 1 mM MgCl2, plus 20 mM N-2-Hydroxyethylpiperazine-N′-2-ethanesulfonic acid (HEPES), pH 7.4, 0.1% bovine serum albumin (BSA) and 2.5 mM probenicid) for 1 hour in 5% CO2 at 37° C. After excess dye was discarded, cells were washed in assay buffer and layered with a final volume equal to 30 μL/well. Basal fluorescence is monitored in a fluorometric imaging plate reader (FLIPR) (Molecular Devices, Sunnyvale, Calif.) with an excitation wavelength of 488 nm and an emission range of 500 to 560 nm. Laser excitation energy was adjusted so that basal fluorescence readings were approximately 10,000 relative fluorescent units. Cells were stimulated with an EC20 or an EC80 concentration of glutamate in the presence of a compound to be tested, both diluted in assay buffer, and relative fluorescent units were measured at defined intervals (exposure=0.6 sec) over a 3 min period at room temperature. Basal readings derived from negative controls were subtracted from all samples. Maximum change in fluorescence was calculated for each well. Concentration-response curves derived from the maximum change in fluorescence were analyzed by nonlinear regression (Hill equation). A negative modulator can be identified from these concentration-response curves if a compound produces a concentration dependent inhibition of the EC80 glutamate response.
# T2 sequence (P31424 21-1203): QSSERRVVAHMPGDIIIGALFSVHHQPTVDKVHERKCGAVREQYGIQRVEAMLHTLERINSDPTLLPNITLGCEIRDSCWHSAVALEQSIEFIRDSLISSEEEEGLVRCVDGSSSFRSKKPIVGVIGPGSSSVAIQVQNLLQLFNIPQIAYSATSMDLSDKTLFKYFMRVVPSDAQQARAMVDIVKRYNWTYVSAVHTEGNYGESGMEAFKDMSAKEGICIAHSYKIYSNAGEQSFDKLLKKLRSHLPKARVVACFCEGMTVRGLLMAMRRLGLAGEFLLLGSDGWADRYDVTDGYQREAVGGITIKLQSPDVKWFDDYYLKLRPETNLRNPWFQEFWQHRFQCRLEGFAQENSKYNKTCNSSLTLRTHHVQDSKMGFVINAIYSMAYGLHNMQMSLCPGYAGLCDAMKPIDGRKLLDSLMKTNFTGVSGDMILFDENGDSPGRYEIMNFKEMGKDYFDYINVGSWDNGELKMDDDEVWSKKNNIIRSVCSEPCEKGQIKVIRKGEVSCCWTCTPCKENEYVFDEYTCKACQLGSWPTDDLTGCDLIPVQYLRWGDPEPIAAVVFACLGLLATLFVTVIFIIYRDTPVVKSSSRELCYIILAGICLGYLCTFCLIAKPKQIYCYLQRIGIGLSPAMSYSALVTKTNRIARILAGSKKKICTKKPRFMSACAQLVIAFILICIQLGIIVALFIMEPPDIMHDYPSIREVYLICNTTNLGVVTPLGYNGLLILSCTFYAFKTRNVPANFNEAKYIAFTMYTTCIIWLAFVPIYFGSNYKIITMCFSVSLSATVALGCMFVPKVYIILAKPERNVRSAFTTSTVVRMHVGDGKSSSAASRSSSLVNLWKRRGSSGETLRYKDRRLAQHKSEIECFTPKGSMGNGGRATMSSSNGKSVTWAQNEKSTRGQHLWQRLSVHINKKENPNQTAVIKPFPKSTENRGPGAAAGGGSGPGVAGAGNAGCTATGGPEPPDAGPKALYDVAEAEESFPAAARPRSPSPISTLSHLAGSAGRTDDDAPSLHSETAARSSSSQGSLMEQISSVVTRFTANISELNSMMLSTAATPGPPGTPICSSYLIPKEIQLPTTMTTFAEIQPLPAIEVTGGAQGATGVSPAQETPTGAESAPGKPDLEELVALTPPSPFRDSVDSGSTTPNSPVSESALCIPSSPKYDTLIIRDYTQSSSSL
row,Emax,SMILES
1,81 to 99%,"O=C(N[C@H]1CCC[C@]2(CCN(c3cccc(F)c3)C2=O)C1)c1ccccn1 (racemic) [Example 19, cis-Pyridine-2-carboxylic acid [2-(3-fluoro-phenyl)-1-oxo-2-aza-spiro[4.5]dec-7-yl]-amide]"
2,81 to 99%,"Cc1cccc(N2CC[C@]3(CCC[C@H](NC(=O)c4cccc(F)c4)C3)C2=O)n1 (racemic) [Example 27, cis-3-Fluoro-N-[2-(6-methyl-pyridin-2-yl)-1-oxo-2-aza-spiro[4.5]dec-7-yl]-benzamide]"
3,81 to 99%,"Cc1cccc(C(=O)N[C@H]2CCC[C@]3(CCN(c4ccc(F)cc4)C3=O)C2)n1 (racemic) [Example 44, cis-6-Methyl-pyridine-2-carboxylic acid [2-(4-fluoro-phenyl)-1-oxo-2-aza-spiro[4.5]dec-7-yl]-amide]"
4,81 to 99%,"Cc1cccc(C(=O)N[C@H]2CCC[C@]3(CCN(c4cccc(C#N)c4)C3=O)C2)n1 (relative stereo) [Example 10, cis-6-Methyl-pyridine-2-carboxylic acid [2-(3-cyano-phenyl)-1-oxo-2-aza-spiro [4.5]dec-7-yl]-amide]"
5,81 to 99%,"Cc1cncc(C(=O)N[C@H]2CCC[C@]3(CCN(c4cccc(Cl)c4)C3=O)C2)n1 (relative stereo) [Example 12, cis-6-Methyl-pyrazine-2-carboxylic acid [2-(3-chloro-phenyl)-1-oxo-2-aza-spiro [4.5]dec-7-yl]-amide]"

# The next lines start with the compound.
row,SMILES,Emax
1,"Cc1cccc(C(=O)N[C@H]2CCC[C@]3(CCN(c4cccc(C(F)(F)F)n4)C3=O)C2)n1 (racemic) [Example 41, cis-6-Methyl-pyridine-2-carboxylic acid [1-oxo-2-(6-trifluoromethyl-pyridin-2-yl)-2-aza-spiro[4.5]dec-7-yl]-amide]",81 to 99%
2,"Cc1cccc(C(=O)N[C@H]2CCC[C@]3(CCN(c4cc(F)cc(F)c4)C3=O)C2)n1 (racemic) [Example 42, cis-6-Methyl-pyridine-2-carboxylic acid [2-(3,5-difluoro-phenyl)-1-oxo-2-aza-spiro[4.5]dec-7-yl]-amide]",81 to 99%
3,"Cc1cccc(C(=O)N[C@H]2CCC[C@@]3(CCN(c4cccc(Cl)c4)C3=O)C2)n1 (relative stereo) [Example 3, trans-6-Methyl-pyridine-2-carboxylic acid [2-(3-chloro-phenyl)-1-oxo-2-aza-spiro [4.5]dec-7-yl]-amide]",81 to 99%
4,"Cc1cccc(N2CC[C@]3(CCC[C@H](NC(=O)c4ccccn4)C3)C2=O)n1 (relative stereo) [Example 7, cis-Pyridine-2-carboxylic acid [2-(6-methyl-pyridin-2-yl)-1-oxo-2-aza-spiro [4.5]dec-7-yl]-amide]",81 to 99%
5,"N#Cc1cccc(N2CC[C@]3(CCC[C@H](NC(=O)c4ccccn4)C3)C2=O)c1 (relative stereo) [Example 9, cis-Pyridine-2-carboxylic acid [2-(3-cyano-phenyl)-1-oxo-2-aza-spiro[4.5]dec-7-yl]-amide]",81 to 99%
6,"Cc1cncc(C(=O)N[C@H]2CCC[C@]3(CCN(c4cccc(C#N)c4)C3=O)C2)n1 (relative stereo) [Example 11, cis-6-Methyl-pyrazine-2-carboxylic acid [2-(3-cyano-phenyl)-1-oxo-2-aza-spiro [4.5]dec-7-yl]-amide]",81 to 99%
7,"O=C(N[C@H]1CCC[C@]2(CCN(c3cccc(Cl)c3)C2=O)C1)c1cnccn1 (relative stereo) [Example 13, cis-Pyrazine-2-carboxylic acid [2-(3-chloro-phenyl)-1-oxo-2-aza-spiro[4.5]dec-7-yl]-amide]",81 to 99%
8,"Cn1ccc(C(=O)N[C@H]2CCC[C@]3(CCN(c4cccc(Cl)c4)C3=O)C2)n1 (relative stereo) [Example 14, cis-1-Methyl-1H-pyrazole-3-carboxylic acid [2-(3-chloro-phenyl)-1-oxo-2-aza-spiro[4.5]dec-7-yl]-amide]",81 to 99%
9,"N#Cc1cccc(N2CC[C@]3(CCC[C@H](NC(=O)c4cccc(F)c4)C3)C2=O)c1 (relative stereo) [Example 15, cis-N-[2-(3-Cyano-phenyl)-1-oxo-2-aza-spiro[4.5]dec-7-yl]-3-fluoro-benzamide]",81 to 99%
